In ChEMBL document CHEMBL1201862, “PubChem BioAssay data set” (2004):
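Cultured in 96-well plates, cells were exposed to test compound for 48 hours across five concentrations. GI50 = concentration required for 50% inhibition of growth.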 Calls of active or inactive are those of the source. Cut-off read from the data, not from the text of the source: active = GI50 up to about 1.1 µM and inactive = higher.

Legend:
Experiment in all cases: NCI anticancer screen, dose series, 48 h
CAKI-1 = tested on: CAKI-1
MCF7 = tested on: MCF7
UO-31 = tested on: UO-31
EKVX = tested on: EKVX
NCI-H460 = tested on: NCI-H460
COLO 205 = tested on: COLO 205
ACHN = tested on: ACHN
RPMI-8226 = tested on: RPMI-8226
K562 = tested on: K562
NCI-H522 = tested on: NCI-H522
HCT-15 = tested on: HCT-15
SN12C = tested on: SN12C
PC-3 = tested on: PC-3
A549 = tested on: A549
SF-539 = tested on: SF-539
MDA-MB-435 = tested on: MDA-MB-435
OVCAR-8 = tested on: OVCAR-8
HOP-62 = tested on: HOP-62
CCRF-CEM = tested on: CCRF-CEM
DU-145 = tested on: DU-145

| Structure (SMILES) | GI50 (CAKI-1) | GI50 (MCF7) | GI50 (UO-31) | GI50 (EKVX) | GI50 (NCI-H460) | GI50 (COLO 205) | GI50 (ACHN) | GI50 (RPMI-8226) | GI50 (K562) | GI50 (NCI-H522) | GI50 (HCT-15) [µM] | GI50 (SN12C) | GI50 (PC-3) | GI50 (A549) | GI50 (SF-539) | GI50 (MDA-MB-435) | GI50 (OVCAR-8) | GI50 (HOP-62) | GI50 (CCRF-CEM) | GI50 (DU-145) |
| --- | --- | --- | --- | --- | --- | --- | --- | --- | --- | --- | --- | --- | --- | --- | --- | --- | --- | --- | --- | --- |
| COC(=O)/C=C\S/C(=C(/c1ccccc1)n1ccc(C(=O)OC)n1)c1ccccc1 | > 100 µM (inactive) | 8.77 µM (inactive) | 13.7 µM (inactive) | 26.5 µM (inactive) | 66.4 µM (inactive) | > 100 µM (inactive) | 7.48 µM (inactive) | 38.9 µM (inactive) | > 100 µM (inactive) | 24.5 µM (inactive) | > 100 | 37.5 µM (inactive) | 16.7 µM (inactive) | 36.6 µM (inactive) | 40.2 µM (inactive) | 45.4 µM (inactive) | 35.9 µM (inactive) | 15.8 µM (inactive) |  |  |
| COc1ccc2c(c1OC)C(C=C(c1ccccc1)c1ccccc1)CN(C)C2 (configuration not stated) | 14.2 µM (inactive) |  | 20 µM (inactive) | 35.3 µM (inactive) | 11.7 µM (inactive) | 14.5 µM (inactive) | 24.4 µM (inactive) | 18.2 µM (inactive) | 6.21 µM (inactive) | 17.2 µM (inactive) | 15 | 25.5 µM (inactive) |  | 30 µM (inactive) | 21.9 µM (inactive) |  | 20.4 µM (inactive) | 20.6 µM (inactive) | 21.3 µM (inactive) |  |
| CCOC(=O)/C(C#N)=C(O)/C(=C/c1ccccc1Cl)NC(=O)c1ccccc1 | > 100 µM (inactive) |  | > 100 µM (inactive) | > 100 µM (inactive) | > 100 µM (inactive) | > 100 µM (inactive) | > 100 µM (inactive) | 26.6 µM (inactive) | 88.1 µM (inactive) | 0.0195 µM (active) | 27.7 | > 100 µM (inactive) |  | > 100 µM (inactive) | > 100 µM (inactive) |  | > 100 µM (inactive) | > 100 µM (inactive) | > 100 µM (inactive) |  |
| CCCCCCCCCCCCCCCCc1c(O)nc(NN)nc1C(=O)OC | > 50 µM (inactive) |  | > 50 µM (inactive) | > 50 µM (inactive) | > 50 µM (inactive) | > 50 µM (inactive) | > 50 µM (inactive) | > 50 µM (inactive) | > 50 µM (inactive) | > 50 µM (inactive) | > 50 | > 50 µM (inactive) |  | > 50 µM (inactive) | > 50 µM (inactive) |  | > 50 µM (inactive) | > 50 µM (inactive) | > 50 µM (inactive) |  |
| CC(C)C[C@H]1[C@@H](OCc2ccccc2)COS(=O)N1[C@H](C)c1ccccc1 (some centres not stated) | 20.2 µM (inactive) |  | 25.3 µM (inactive) | 28.6 µM (inactive) | 15.3 µM (inactive) | 15.2 µM (inactive) | 19.5 µM (inactive) | 5.51 µM (inactive) | 5.51 µM (inactive) | 4.33 µM (inactive) | 26.9 | 17.5 µM (inactive) | 5.79 µM (inactive) | 17.5 µM (inactive) |  | 22.4 µM (inactive) | 26.7 µM (inactive) | 19.1 µM (inactive) | 13.3 µM (inactive) | 37.8 µM (inactive) |
| C[C@H]1[C@@H](c2ccccc2)O[B-](c2ccccc2)(c2ccccc2)[N+]1(C)C | 34.3 µM (inactive) |  | 19.3 µM (inactive) | > 100 µM (inactive) | > 100 µM (inactive) | 16.1 µM (inactive) | 34.3 µM (inactive) | 31.3 µM (inactive) | 48.5 µM (inactive) | 35.7 µM (inactive) | 38.4 | 99.3 µM (inactive) | < 0.01 µM (active) | 74.1 µM (inactive) | 33.3 µM (inactive) | 61.8 µM (inactive) | 79.3 µM (inactive) | > 100 µM (inactive) | > 100 µM (inactive) | 57 µM (inactive) |
| CC12CCC(=O)[C@@]1(C)CCCC2=O (some centres not stated) | > 100 µM (inactive) | > 100 µM (inactive) | > 100 µM (inactive) | > 100 µM (inactive) | > 100 µM (inactive) | > 100 µM (inactive) | > 100 µM (inactive) |  | > 100 µM (inactive) | > 100 µM (inactive) | > 100 | > 100 µM (inactive) | > 100 µM (inactive) | > 100 µM (inactive) | > 100 µM (inactive) |  | > 100 µM (inactive) | > 100 µM (inactive) | > 100 µM (inactive) | > 100 µM (inactive) |
| CN(C)CCC(=O)c1ccccc1 | 18.9 µM (inactive) |  | > 56.9 µM (inactive) | > 55.6 µM (inactive) | > 58.5 µM (inactive) | 28.9 µM (inactive) | > 57.5 µM (inactive) | 9.04 µM (inactive) | 27.6 µM (inactive) | 0.693 µM (active) | 24.1 | > 58.6 µM (inactive) |  | > 65.2 µM (inactive) | > 58.1 µM (inactive) |  | 36.6 µM (inactive) | > 100 µM (inactive) | 23.4 µM (inactive) |  |
